Read-outs that look alike come from different tables or passages of the source.

The experiment deals with Human opiate κ receptors (Homo sapiens, UniProt P41145). In words: κ opioid receptor functional assay, [35S]GTPγS binding (assay C). The format is biochemical. Conditions: for activation at 1 µM: 0.5 h, read-out: % activation functional assay at 1 μM. On the technique in general: GTPγS resists hydrolysis and so accumulates on activated G proteins.
[1] abbreviates: read-out: EC50 (nM) [35S]GTPγS binding.

Chain of Human opiate κ receptors (P41145 whole entry): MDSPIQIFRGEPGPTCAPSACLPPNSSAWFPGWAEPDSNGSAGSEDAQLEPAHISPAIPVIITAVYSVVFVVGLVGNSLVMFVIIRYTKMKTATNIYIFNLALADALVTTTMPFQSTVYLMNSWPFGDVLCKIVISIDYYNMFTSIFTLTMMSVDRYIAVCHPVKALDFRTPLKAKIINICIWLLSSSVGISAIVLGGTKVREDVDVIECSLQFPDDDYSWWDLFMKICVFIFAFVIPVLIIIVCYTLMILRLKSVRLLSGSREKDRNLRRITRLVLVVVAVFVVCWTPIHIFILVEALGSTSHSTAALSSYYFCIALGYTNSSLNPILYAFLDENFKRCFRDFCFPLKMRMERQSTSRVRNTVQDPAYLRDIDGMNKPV

With `Cl.O=C(OCc1ccccc1)N1CCN(C(=O)Cc2ccc(Cl)c(Cl)c2)C2C(N3CCCC3)CCCC21` (stereo not drawn) [Example 95], the “% activation functional assay at 1 μM” value is on record as 104%. Further, where the note is “read-out: GTPγS EC50”, the EC50 was under 10 nM.
`O=C(O)CC(=O)N1CCN(C(=O)Cc2ccc(Cl)c(Cl)c2)C2C(N3CCCC3)CCCC21` (racemic) [Example 37]: the “activation (% of control) at 1 μM” value is 87 % of control and the activation at 1 µM amounted to 87%. The molecule further returned an EC50 (EC50 kappa opioid receptor activation) of 22 nM. This molecule came in with a half-maximal effective concentration (EC50) (GTPγS EC50 (nM)) of 10 to 100 nM.
With `O=C(O)CC(=O)N1CCN(C(=O)Cc2ccc(Cl)c(Cl)c2)C2C(N3CCCC3)CCCC21` (racemic) [AD, reference compound], the “activation (% of control) at 1 μM” value was 22 % of control and the “activation of the kappa opioid receptors at 1 μM” value is “no or little activation”. The 50% effective concentration (EC50) under setting [1] was over 1000 nM. For the same molecule, where the note is “read-out: EC50 kappa opioid receptor activation”, the concentration giving a half-maximal response (EC50) is over 1000 nM.
For `COC(=O)N1CCN(C(=O)Cc2ccc(Cl)c(Cl)c2)[C@@H]2[C@H]1CCC[C@@H]2N1CCCC1` (racemic) [Reference compound E, reference compound], the activation at 1 µM stood at 68%.
In the case of `CC(=O)OCC(=O)N1CCN(C(=O)Cc2ccc(Cl)c(Cl)c2)C2C(N3CCCC3)CCCC21` (racemic) [Example 58], the activation at 1 µM was determined as 96%. Further, for the setting “GTPγS EC50 (nM)”, the EC50 was in the range of 10 to 100 nM.
On the same counts, the results for `CN(C)S(=O)(=O)N1CCN(C(=O)Cc2ccc(Cl)c(Cl)c2)[C@@H]2[C@@H](N3CCCC3)CCC[C@@H]21` [Example 98] are 105% and under 10 nM.
`CS(=O)(=O)N1CCN(C(=O)Cc2ccc(C(F)(F)F)c(Cl)c2)[C@@H]2[C@@H](N3CC[C@H](O)C3)CCC[C@@H]21` [Example 124]: the activation at 1 µM is 97%. Further, for the setting “GTPγS EC50 (nM)”, the EC50 is under 10 nM.
Turning to `COC(=O)CC(=O)N1CCN(C(=O)Cc2ccc(Cl)c(Cl)c2)C2C(N3CCCC3)CCCC21` (stereo not drawn) [P, reference compound], the “activation (% of control) at 1 μM” value is recorded as 81 % of control. Further, the EC50 under setting [1] is 220 nM.
Take `COC(=O)N1CCN(C(=O)Cc2ccc(Cl)c(Cl)c2)[C@H]2[C@H](N3CCCC3)CCC[C@@H]21` (racemic) [Reference compound B, reference compound]: the “activation (% of control) at 1 μM” value was 90 % of control and the activation at 1 µM is 90%.
Take `COC(=O)N1CCN(C(=O)Cc2ccc(Cl)c(F)c2)C2C(N3CCCC3)CCCC21` (racemic) [Example 19]: the activation at 1 µM was determined as 100%. This molecule also registered an EC50 (GTPγS EC50 (nM)) of under 10 nM.
For `O=C(c1ccccn1)N1CCN(C(=O)Cc2ccc(Cl)c(Cl)c2)C2C(N3CCCC3)CCCC21` (racemic) [Example 32], the activation at 1 µM was found to be 88%.
For `COC(=O)N1CCN(C(=O)Cc2ccc(Cl)c(Cl)c2)C2C(N3CC=CCC3)CCCC21` (racemic) [Example 12], the activation at 1 µM is 96%. This molecule also showed a half-maximal effective concentration (EC50) (GTPγS EC50 (nM)) of 10 to 100 nM.
For the molecule `COC(=O)N1CCN(C(=O)Cc2ccc(F)c(Cl)c2)[C@@H]2[C@@H](N3CC[C@H](O)C3)CCC[C@@H]21` [Example 109], the activation at 1 µM stood at 110%. Also, the EC50 (GTPγS EC50 (nM)) is under 10 nM.
On the same counts, the results for `COC(=O)N1CCN(C(=O)Cc2ccc3ccccc3c2)C2C(N3CCCC3)CCCC21` (racemic) [Example 10] are 100% and 10 to 100 nM.
For `COC(=O)N1CCN(C(=O)Cc2ccc(Cl)c(Cl)c2)C2C(N3CCC(O)C3)CCCC21` (stereo not drawn) [Example 53], the “% activation functional assay at 1 μM” value was found to be 97%. Besides, the “activation (% of control) at 1 μM” value (1 µM) was 97 % of control. Under “EC50 (nM) [35S]GTPγS binding”, this molecule returned an EC50 of 6.1 nM. For the setting “GTPγS EC50 (nM)”, this molecule registered a concentration giving a half-maximal response (EC50) of under 10 nM.
With `COC(=O)N1CCN(C(=O)Cc2ccc(F)c(F)c2)[C@@H]2[C@@H](N3CC[C@H](O)C3)CCC[C@@H]21` [Example 138], the activation at 1 µM stood at 108%. Under “GTPγS EC50 (nM)”, the EC50 lay in the range of 10 to 100 nM.
In the case of `CCOC(=O)N1CCN(C(=O)Cc2ccc(Cl)c(Cl)c2)C2C(N3CCCC3)CCCC21` (racemic) [O, reference compound], the “activation (% of control) at 1 μM” value is 88 % of control. In addition, the concentration for a half-maximal effect (EC50) under setting [1] stood at 150 nM.
For the molecule `COC(=O)N1CCN(C(=O)Cc2ccc(Cl)cc2)[C@@H]2[C@@H](N3CC[C@H](O)C3)CCC[C@@H]21` [Example 140], the activation at 1 µM was determined as 103%. For the same molecule, for the setting “GTPγS EC50 (nM)”, the EC50 lay within 10 to 100 nM.
With `COC(=O)COC(=O)N1CCN(C(=O)Cc2ccc(Cl)c(Cl)c2)C2C(N3CCCC3)CCCC21` (racemic) [Example 67], the activation at 1 µM is 106%. Where the note is “GTPγS EC50 (nM)”, this molecule showed an EC50 of under 10 nM.
On the same counts, the results for `CN(C)C(=O)N1CCN(C(=O)Cc2ccc(Cl)c(Cl)c2)C2C(N3CCCC3)CCCC21` (racemic) [Example 34] are 107% and 10 to 100 nM.
For `COC(=O)N1CCN(C(=O)Cc2ccc(F)c(Cl)c2)C2C(N3CCC(O)C3)CCCC21.Cl` (stereo not drawn) [Example 110], the “% activation functional assay at 1 μM” value is on record as 92%. Also, for the setting “read-out: GTPγS EC50”, the concentration giving a half-maximal response (EC50) fell in the range of 10 to 100 nM.
Turning to `COC(=O)N1CCN(C(=O)Cc2ccc(Cl)c(Cl)c2)[C@H]2[C@H](N3CCCC3)CCC[C@H]21` (single isomer, unassigned) [Reference compound A, reference compound], the activation at 1 µM was 51%.
On to `O=C(c1ncccn1)N1CCN(C(=O)Cc2ccc(Cl)c(Cl)c2)C2C(N3CCCC3)CCCC21` (racemic) [Example 83], for which the “% activation functional assay at 1 μM” value was 111%.
In the case of `O=C(Cc1ccc(Cl)c(Cl)c1)N1CCN(Cc2ccccc2)[C@H]2CCC[C@H](N3CCCC3)[C@H]21` (racemic) [Example 15], the “activation (% of control) at 1 μM” value is 89 % of control and the activation at 1 µM came to 89%. A half-maximal effect (EC50 (nM) [35S]GTPγS binding) (EC50) was put at 7.39 nM. Under “GTPγS EC50 (nM)”, this molecule gave an EC50 of under 10 nM.
As for `COC(=O)N1CCN(C(=O)Cc2ccc(C(F)(F)F)cc2)C2C(N3CCCC3)CCCC21` (racemic) [Example 5], the activation at 1 µM is 105%. The same molecule gave an EC50 (GTPγS EC50 (nM)) of under 10 nM.
On to `COC(=O)N1CCN(C(=O)Cc2ccc(C(F)(F)F)c(Cl)c2)[C@@H]2[C@@H](N3CC[C@@H](O)C3)CCC[C@@H]21` [Example 113], for which the activation at 1 µM was 102%. For the same molecule, the EC50 (GTPγS EC50 (nM)) was under 10 nM.
Regarding `CC(C)NC(=O)N1CCN(C(=O)Cc2ccc(Cl)c(Cl)c2)[C@@H]2[C@@H](N3CCCC3)CCC[C@@H]21` [Example 99], the activation at 1 µM worked out at 100%. The molecule also gave a half-maximal effective concentration (EC50) (GTPγS EC50 (nM)) of under 10 nM.
On the same counts, the results for `COC(=O)N1CCN(C(=O)Cc2cccc([N+](=O)[O-])c2)C2C(N3CCCC3)CCCC21` (racemic) [Example 3] are 105% and 10 to 100 nM.
On the same counts, the results for `O=C(O)COC(=O)N1CCN(C(=O)Cc2ccc(Cl)c(Cl)c2)C2C(N3CCCC3)CCCC21` (racemic) [Example 69] are 101% and 10 to 100 nM.
The like results for `NC(=O)C(=O)N1CCN(C(=O)Cc2ccc(Cl)c(Cl)c2)C2C(N3CCCC3)CCCC21` (racemic) [Example 66] were, in that order, 100% and 10 to 100 nM.
Turning to `O=C(Cc1ccc(Cl)c(Cl)c1)N1CCN(C(=O)OCc2ccccc2)[C@H]2CCC[C@H](N3CCCC3)[C@H]21` (racemic) [Example 16], the activation at 1 µM was found to be 102%. The same molecule displayed an EC50 (GTPγS EC50 (nM)) of under 10 nM.
In the case of `O=C(O)CC(=O)N1CCN(C(=O)Cc2ccc(Cl)c(Cl)c2)C2C(N3CCC(O)C3)CCCC21` (mixture of isomers) [T, reference compound], the “activation (% of control) at 1 μM” value is listed as 11 % of control and the “activation of the kappa opioid receptors at 1 μM” value was “no or little activation”. In addition, the half-maximal effective concentration (EC50) (EC50 (nM) [35S]GTPγS binding) was over 1000 nM.

The EC50 is the concentration at which the effect is half-maximal.

(Values after patent US20160122307A1, “PERHYDROQUINOXALINE DERIVATIVES” (DR. AUGUST WOLFF GMBH & CO. KG ARZNEIMITTEL, priority 2013, published 2016).)
